Assay results: article PMC9525106, “Intestinal permeability of agaro-oligosaccharides: Transport across Caco-2 cell monolayers and pharmacokinetics in rats” (Frontiers in Nutrition, 2022)
Where two headings read alike, the source gives them in different places.

Experiments:
Caco-2 cell monolayers [1] = assay: Transepithelial permeation route analysis with transport inhibitors in Caco-2 cell monolayers; settings: for effect of sodium azide on transport rate: 1 mM sodium azide preincubated 30 min, then 2 h incubation; for effect of cytochalasin B on transepithelial permeability: Caco-2; for effect on TEER value of Caco-2 cell monolayers: inhibitor in apical chamber (sodium azide 1 mM, colchicine 1 mM, cytochalasin B 5 μg/ml), TEER after 2 h
Procedure: (§1) Caco-2 cells were purchased from DS Pharma (Osaka, Japan). The cells (passage 20–27) were cultured in E-MEM containing 10% (v/v) FBS, 1% (v/v) MEM-NEAA, and 1% (v/v) PS. The cells were incubated at 37°C in an atmosphere of 5% CO2 under 95% relative humidity. When the cells reached 80–90% confluence, they were passaged at a density of 1.0 × 10^5 cells onto a 12-well Transwell Permeable Support (0.4-μm pore polyester membrane insert, Corning, NY, USA). The cells were cultured for 19–21 days to obtain a monolayer. The culture medium (0.6 ml in the apical side and 1.5 ml in the basolateral side) was replaced every 1–2 days. The integrity of the Caco-2 cell monolayer was evaluated by measuring transepithelial electrical resistance (TEER) using a Millicell-ERS-2 system (Merck, Darmstadt, Germany). Only cell monolayers with final TEER values above 700 Ω · cm^2, indicative of high barrier integrity, were used for the transport assays.
(§2) Caco-2 cells monolayers were preincubated in HBSS for 30 min at 37°C. Subsequently, 0.6 ml of 0.5 mg/ml Abi and Ahe and 1.5 ml of HBSS to the apical and basolateral sides, respectively. After incubation for 0, 1, 2, and 3 h, the supernatant was collected from the basolateral side. To identify the transport mechanisms, Caco-2 cell monolayers were preincubated with sodium azide (1 mM), colchicine (1 mM), or cytochalasin B (5 μg/ml) dissolved in HBSS with 0.1% DMSO for 30 min, followed by the incubation of 0.5 mg/ml Abi and Ahe for 2 h. To remove salt, the collected supernatant was applied to the graphitized carbon solid-phase extraction (GC-SPE) using InertSep GC (200 mg/3 ml) (GL Sciences Inc., Tokyo, Japan), according to the method described by Ninonuevo et al. ([12]). The SPE cartridge was first equilibrated with 6 ml of 80% acetonitrile in 0.1% acetic acid (v/v), followed by 3 ml of DW. The basal solution was dissolved in DW to 3 ml and loaded onto the cartridge. The salts were removed by washing with 6 ml of DW, and Abi or Ahe was eluted with 3 ml of 20% acetonitrile. After ABEE derivatization, the collected solution was evaporated to dryness and subjected to LC-MS. The apparent permeability coefficients (Papp) were calculated ([13]) as Papp = (dQ/dt) × (1/AC0), where dQ/dt is the permeation rate (μg/s), A is the area of the monolayer of Caco-2 cells (cm^2), and C0 is the initial concentration of Abi or Ahe in the apical chamber (μg/ml).
The effects of various inhibitors on the transepithelial absorption through Caco-2 cell monolayers were examined to identify the transport routes of Abi and Ahe. We used 1 mM sodium azide and 1 mM colchicine as an electron-transport-chain inhibitor and a transcytosis inhibitor, respectively, to determine whether an energy-dependent pathway is involved. […] Next, we used cytochalasin B as a tight junction disruptor to investigate the involvement of the paracellular pathway in the transepithelial permeation of Abi and Ahe. Cytochalasin B increases the paracellular permeability by affecting the tight junction structure through the myosin light chain kinase activation ([14]).

Caco-2 cell monolayers [2] = format: in vitro ADME, human
Procedure: as §1, §2

[3] = rat, in vivo, po
Procedure: To prepare the standard curve samples of AOSs, the AOSs were labeled with ABEE using an ABEE labeling kit (J-Chemical, Tokyo, Japan) according to the method developed by Yasuno et al. ([11]). The reaction was performed according to the instructions provided by the manufacturer. Briefly, 40 μl of the ABEE reagent solution was added to 10 μl of the solution of AOSs and the mixture was vortexed and incubated at 80°C for 1 h. After cooling to 15–20°C, 200 μl of DW and an equal volume of chloroform were added, and the mixture was then vortexed and centrifuged for 1 min. The upper layer was filtered through a polytetrafluoroethylene membrane (4 mm diameter, 0.45-μm pore size; Membrane Solutions Limited, Plano, TX, USA) and subjected to LC-MS.
For the HPLC measurements, an LC-20AD pump (Shimadzu) fitted with a DGU-20A 5R degassing unit (Shimadzu) was used. The analytes were injected using a SIL-20AC autosampler (Shimadzu). In addition, a CTO-20AC column oven (Shimadzu) was used, and entire equipment was controlled using a CBM-20A unit (Shimadzu). The samples were separated on a Shim-pack VP-ODS (150 × 2.0 mm, 4.6 μm; Shimadzu) combined with a Shim-pack GVP-ODS guard column (2.0 mm i.d. × 5 mm, 4.6 μm; Shimadzu). The mobile phase consisted of acetic acid (0.1%) in water (A) and acetic acid (0.1%) in acetonitrile (B). The gradient conditions were as follows: 0–30 min, 9%−13% B; 30–45 min, 80% B; 45–60 min, 9% B. The flow rate was 0.2 ml/min. The column oven temperature was set at 60°C, and the autosampler temperature was 10°C.
The detection was performed using an LCMS-2020 (Shimadzu) ESI-MS device. The analytes were identified and quantified by selected ion monitoring in the positive-ion mode. The MS conditions were as follows: interface temperature, 350°C; desolvation line (DL) temperature, 250°C; heat block temperature, 200°C; nebulizer gas flow, 1.5 L/min; drying gas flow, 15 L/min; interface voltage, 4.5 kV; DL voltage, 0 kV.
Fifteen female Sprague–Dawley rats, aged 7 weeks, were purchased from Charles River Laboratories Japan (Kanagawa, Japan). The rats were acclimatized to standard laboratory conditions (20–25°C, 40%−70% humidity, and 12 h light/dark cycle) for 1 week.
After a fasting period of 12 h, 2 ml of phosphate-buffered saline (pH 7.4) containing 0%, 10%, or 50% AOSs was orally administered to five rats from each group (220–250 g body weight) using feeding gavages. The AOSs comprised 30.2, 29.1, and 31.6% of Abi, Ate, and Ahe, respectively. Blood (100 μl) was collected before and after 1, 2, 4, 8, and 24 h of oral administration from the tail vein using 10,000 U heparin-coated syringes (1 ml) with a 26G × 1/2 ” needle. The blood samples were centrifuged at 1,000 g for 10 min, and the supernatants were collected. Acetonitrile was added to the plasma samples at a final concentration of 60%. The samples were vigorously vortexed and centrifuged at 6,000 g for 5 min; the supernatants were collected and evaporated to dryness. Subsequently, the dried samples were dissolved in 10 μl of DW and subjected to ABEE derivatization before LC-MS analysis. The area under the curve (AUC) of plasma concentration was calculated using the trapezoid formula.

peritoneal macrophages = system: peritoneal macrophages; parameters: method as in PMID 22791164; settings: oral administration to mice, 3% AOSs containing water for 3 weeks; cited from earlier work
Caco-2 cell monolayers [4] = format: in vitro ADME, human; remark: listed apart in the source
Procedure: The correlation between TEER and permeation rate was examined to confirm the occurrence of Abi and Ahe transport via the paracellular pathway by using the LY fluorescent stain for comparison. Thus, Abi, Ahe, and LY were added to the apical chamber with or without cytochalasin B. The basal chamber solution was collected, and the TEER was measured every 1 h for 3 h, thereby quantifying Abi, Ahe, and LY in the basal chamber. The TEER and quantified values are plotted as a scatter plot in Figure 6.

[5] = parameters: method as in PMID 20378994; settings: cited from earlier work

Compound | AUC ([3]; 1 g/kg) | Cmax ([3]; 1 g/kg) | Tmax ([3]; 1 g/kg) | AUC ([3]; 5 g/kg) | Cmax ([3]; 5 g/kg) | Tmax ([3]; 5 g/kg) | Pearson correlation coefficient value between TEER and amount permeated (Caco-2 cell monolayers [4]) | effect on TEER value of Caco-2 cell monolayers (Caco-2 cell monolayers [1]) | other results
OC[C@H]1O[C@@H](O[C@H]2[C@H]3OC[C@@H]2OC(O)[C@H]3O)[C@H](O)[C@@H](O)[C@H]1O (mixture of isomers) [Abi, agarobiose] | 0.62 ± 0.18 µg·h/mL | 76.4 ± 36.7 ng/mL | 4 h | 2.56 ± 0.81 µg·h/mL | 439.8 ± 182.6 ng/mL | 4 h | −0.832 | – | effect of sodium azide on transport rate (Caco-2 cell monolayers [1]): did not have any significant effect; effect of cytochalasin B on transepithelial permeability (Caco-2 cell monolayers [1]): increased; Papp (Caco-2 cell monolayers [2]): 0.41 ± 0.03 10^−6 cm/s; percentage permeated (Caco-2 cell monolayers [2]): 0.27 ± 0.02 %/h; nitric oxide (NO) production on stimulated peritoneal macrophages (peritoneal macrophages): suppression
OC[C@H]1O[C@@H](O[C@H]2[C@H]3OC[C@@H]2O[C@@H](O[C@H]2[C@@H](O)[C@@H](CO)O[C@@H](O[C@H]4[C@H]5OC[C@@H]4O[C@@H](O[C@H]4[C@@H](O)[C@@H](CO)O[C@@H](O[C@H]6[C@H]7OC[C@@H]6OC(O)[C@H]7O)[C@@H]4O)[C@H]5O)[C@@H]2O)[C@H]3O)[C@H](O)[C@@H](O)[C@H]1O (mixture of isomers) [Ahe, agarohexaose] | 0.29 ± 0.27 µg·h/mL | 42.1 ± 37.1 ng/mL | 4 h | 0.46 ± 0.25 µg·h/mL | 107.8 ± 55.0 ng/mL | 4 h | −0.814 | – | effect of sodium azide on transport rate (Caco-2 cell monolayers [1]): did not have any significant effect; effect of cytochalasin B on transepithelial permeability (Caco-2 cell monolayers [1]): increased; Papp (Caco-2 cell monolayers [2]): 0.21 ± 0.01 10^−6 cm/s; percentage permeated (Caco-2 cell monolayers [2]): 0.14 ± 0.01 %/h
OC[C@H]1O[C@@H](O[C@H]2[C@H]3OC[C@@H]2O[C@@H](O[C@H]2[C@@H](O)[C@@H](CO)O[C@@H](O[C@H]4[C@H]5OC[C@@H]4O[C@@H](O)[C@H]5O)[C@@H]2O)[C@H]3O)[C@H](O)[C@@H](O)[C@H]1O [Ate, agarotetraose] | 0.39 ± 0.17 µg·h/mL | 58.9 ± 37.6 ng/mL | 4 h | 1.39 ± 0.45 µg·h/mL | 239.5 ± 98.2 ng/mL | 4 h | – | – | nitric oxide (NO) production on stimulated peritoneal macrophages (peritoneal macrophages): suppression
COc1cc2c(c(OC)c1OC)-c1ccc(OC)c(=O)cc1[C@@H](NC(C)=O)CC2 [colchicine, reference compound] | – | – | – | – | – | – | – | did not have any significant effect | –
C=C1[C@@H](C)[C@H]2[C@H](Cc3ccccc3)NC(=O)[C@]23OC(=O)/C=C/[C@H](O)CCC[C@@H](C)C/C=C/[C@H]3[C@@H]1O [cytochalasin B, reference compound] | – | – | – | – | – | – | – | significantly decreased | –
OC[C@H]1O[C@@H](O)[C@H](O)[C@@H](O[C@@H]2O[C@H]3CO[C@@H]([C@@H]2O)[C@@H]3O[C@@H]2O[C@H](CO)[C@H](O)[C@H](O[C@@H]3O[C@H]4CO[C@@H]([C@@H]3O)[C@@H]4O[C@@H]3O[C@H](CO)[C@H](O)[C@H](O[C@@H]4O[C@H]5CO[C@@H]([C@@H]4O)[C@@H]5O)[C@H]3O)[C@H]2O)[C@H]1O [neoagarohexaose] | – | – | – | – | – | – | – | – | anti-inflammatory activity [5]: no anti-inflammatory activity
[N-]=[N+]=[N-].[Na+] [sodium azide, reference compound] | – | – | – | – | – | – | – | did not have any significant effect | –
Lucifer yellow CH dilithium salt [LY, reference compound] | – | – | – | – | – | – | −0.779 | – | –
